Values joined by “and” are separate entries in the source; they are usually repeats but may differ in a detail not shown here. Equal entries are not always repeated. Where two headings read alike, the source gives them in different places.
Legend:
TcGlcK [1] = target: T1, TcGlcK (Trypanosoma cruzi (strain CL Brener), UniProt Q4E4E1); experiment: TcGlcK Michaelis-Menten kinetics and substrate range; assay type: biochemical; settings: substrate; triplicate runs
Experimental: (§1) D-Glucose was also tested as a control with alternative substrates. The protein expression work for TcGlcK and HsHxKIV were each made possible through the E. coli strain BL21(DE3) system. Purification of each enzyme was performed through cobalt-NTA chromatography followed by size-exclusion chromatography; assessment of purity was performed by SDS-PAGE. In enzymatic assays, a time-optimum (TOPT) was determined to be 120 seconds for TcGlcK and 600 seconds for HsHxKIV; all assays were run at room temperature. A general reaction scheme included a first reaction in which the monosaccharide, ATP, and Mg^2+ react with the enzyme, e.g., TcGlcK, forming a hexose-phosphate and ADP. In a second reaction, hexose-phosphate with the assistance of glucose-6-phosphate dehydrogenase (G6PDH) and NADP^+ was converted to the lactone form of the hexose-phosphate and NADPH. Fluorescence of NADPH was monitored using a fluorescence microplate reader with […] wavelengths of 340 nm and 485 nm, respectively.
(§2) FIG. 4 and FIG. 5 present typical Michaelis-Menten enzyme kinetic plots for D-glucose. As shown, the NADP^+ to NADPH turnover rate is a function of [D-glucose] & [ATP] for TcGlcK (FIG. 4) and HsHxKIV (FIG. 5) absent inhibition. Michaelis-Menten constant (KM) values, which were used as the set final assay concentrations of substrates D-glucose and ATP for the primary screens, were determined for both TcGlcK and HsHxKIV in triplicate runs. The KM values for TcGlcK with respect to D-glucose and ATP were 0.40 mM and 0.34 mM, respectively. The KM values for HsHxKIV with respect to D-glucose and ATP were 43 mM and 0.20 mM, respectively.
All phosphorylated hexoses were shown getting converted into their corresponding products by G6PDH, in abundant quantities through a 30-second time frame. This permitted the standard TcGlcK […] assay, which was timed for […], to be used as an assay to analyze alternative substrates.

HsHxKIV [2] = target: T2, HsHxKIV (Homo sapiens (Human), UniProt P35557); experiment: HsHxKIV Michaelis-Menten kinetics; assay type: biochemical; settings: substrate; triplicate runs
T2 sequence (P35557 whole entry): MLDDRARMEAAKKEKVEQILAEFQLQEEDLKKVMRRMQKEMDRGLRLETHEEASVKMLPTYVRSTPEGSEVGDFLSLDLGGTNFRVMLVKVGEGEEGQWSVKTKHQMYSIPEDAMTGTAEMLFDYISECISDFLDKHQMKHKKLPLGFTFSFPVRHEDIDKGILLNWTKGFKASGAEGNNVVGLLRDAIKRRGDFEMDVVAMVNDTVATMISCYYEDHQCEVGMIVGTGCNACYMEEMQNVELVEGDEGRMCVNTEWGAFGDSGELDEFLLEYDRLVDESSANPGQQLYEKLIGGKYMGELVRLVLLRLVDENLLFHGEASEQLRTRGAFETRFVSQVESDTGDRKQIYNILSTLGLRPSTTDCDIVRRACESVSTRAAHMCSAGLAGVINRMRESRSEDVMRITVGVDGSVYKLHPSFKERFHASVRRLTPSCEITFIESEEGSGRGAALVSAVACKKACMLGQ
Experimental: as §1
FIG. 4 and FIG. 5 present typical Michaelis-Menten enzyme kinetic plots for D-glucose. […] Michaelis-Menten constant (KM) values, which were used as the set final assay concentrations of substrates D-glucose and ATP for the primary screens, were determined for both TcGlcK and HsHxKIV in triplicate runs. […]

HsHxKIV [3] = target: T2, HsHxKIV; experiment: Primary assay screen of HsHxKIV, normalized percent inhibition (Example 2); assay type: biochemical; settings: triplicate
Experimental: (§3) Primary assay screens of TcGlcK, LbGlcK, and HsHxKIV against the 3-nitro-2-phenyl-2H-chromene-based inhibitors compound nos. 19-22 were carried out. Compound 1, Benzoyl glucosamine (BENZ-GlcN or simply “BENZ”) and carboxybenzyl glucosamine (CBZ-GlcN or simply “CBZ”) were both used as controls due to their known inhibition against TcGlcK. LbGlcK was chosen to be tested against these compounds due to its 44% protein sequence similarity to TcGlcK.
(§4) All screens were done in triplicate and were analyzed using normalized percent inhibition (NPI) calculations. NPI calculations rely on positive and negative assay controls within the screen to account for any fluctuations in the fluorescence measurements.
(§5) The NPI for a compound to be considered a “hit” against TcGlcK required a value exceeding 60.5% inhibition in the primary screen. All four compounds ([…]) qualified as hits based off of this parameter. LbGlcK required compounds to be above 12.6% inhibition in its primary screen; all four compounds were also qualified as hits.

[4] = target: Trypanosoma cruzi glucokinase (TcGlcK) (Trypanosoma cruzi (strain CL Brener), UniProt Q4E4E1); assay type: biochemical; settings: for TcGlcK Inh20 (%): percentage of inhibition at 20 μM of the compound, N = 1
Sequence of Trypanosoma cruzi glucokinase (TcGlcK) (Q4E4E1 1-376): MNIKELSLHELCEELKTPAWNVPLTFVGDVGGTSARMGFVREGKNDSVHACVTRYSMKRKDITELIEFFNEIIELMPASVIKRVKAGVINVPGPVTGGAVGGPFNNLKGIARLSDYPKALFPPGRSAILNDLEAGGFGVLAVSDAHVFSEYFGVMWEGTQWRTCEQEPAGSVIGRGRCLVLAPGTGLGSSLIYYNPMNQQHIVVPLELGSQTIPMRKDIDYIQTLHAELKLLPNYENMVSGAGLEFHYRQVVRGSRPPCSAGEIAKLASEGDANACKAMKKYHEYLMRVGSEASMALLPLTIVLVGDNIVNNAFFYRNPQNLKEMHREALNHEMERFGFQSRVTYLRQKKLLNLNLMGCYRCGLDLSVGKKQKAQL
Experimental: as §1, with “In enzymatic assays, a time-optimum (TOPT) was determined to be 120 seconds for TcGlcK and 600 seconds for HsHxKIV; all assays were run at room temperature.” left out
Michaelis-Menten constant (KM) values, which were used as the set final assay concentrations of substrates D-glucose and ATP for the primary screens, were determined for both TcGlcK and HsHxKIV in triplicate runs. […]
The cutoff percentage was calculated by using normalized percent inhibition that took into consideration the positive and negative controls of the fluorescence readout from a fluorescence microplate reader. In addition, an unconfirmed hit was selected if the activity measurement was three standard deviations away from the mean of the positive controls.

TcGlcK [5] = target: T1, TcGlcK; experiment: Primary assay screen of TcGlcK, normalized percent inhibition (Example 2); assay type: biochemical; settings: triplicate
Experimental: as §3, §4, §5

[6] = target: Homo sapiens hexokinase IV (HsHxKIV) (Homo sapiens (Human), UniProt P35557); experiment: HsHxKIV enzyme-inhibition screening assay (Example 1); assay type: biochemical; settings: 20 μM compound; N = 1
Sequence of Homo sapiens hexokinase IV (HsHxKIV) (P35557 whole entry): as the sequence (P35557 whole entry) above
Experimental: as §1, §2

TcGlcK [7] = target: T1, TcGlcK; settings: from D'Antonio, et al (2015); cited from earlier work
[8] = system: Leishmania braziliensis glucokinase (LbGlcK); experiment: Primary assay screen of LbGlcK, normalized percent inhibition (Example 2); assay type: biochemical; settings: triplicate
Experimental: as §3, §4, §5

[9] = system: glucose-6-phosphate dehydrogenase (G6PDH); experiment: G6PDH confirmatory assay (coupling enzyme counter-screen); assay type: biochemical; settings: 20 μM compound; quadruplicate
Experimental: The 16 compounds showing substantial inhibition against TcGlcK at compound concentrations of 20 μM were then examined in a confirmatory assay in which the amino sugar analogues were at a concentration of 20 μM and were tested against the assay's only coupling enzyme, G6PDH, to verify enzyme activity; the assay was performed in quadruplicate. […] These confirmed hits included representatives from all three monosaccharide scaffolds tested (i.e., D-GlcN, D-ManN, and D-GalN).

TcGlcK [10] = target: T1, TcGlcK; assay type: biochemical
Experimental: as §1, with “In enzymatic assays, a time-optimum (TOPT) was determined to be 120 seconds for TcGlcK and 600 seconds for HsHxKIV; all assays were run at room temperature.” left out

[11] = system: T. cruzi (Tulahuen strain) infective form (trypomastigote and amastigote life stages) co-cultured in NIH-3T3 fibroblasts; experiment: T. cruzi infective form growth inhibition in NIH-3T3 fibroblasts; assay type: cell-based, Trypanosoma cruzi; settings: Tulahuen strain infective form in NIH-3T3 fibroblasts; N = 3 (Amphotericin B control: 6 replicates)
Experimental: The curve and the IC50 were calculated from measurements determined in triplicate and expressed as percent growth inhibition of the T. cruzi parasite infection of mammalian cells.
Compounds were further screened against the T. cruzi (Tulahuen strain) infective form (trypomastigote and amastigote life stages) co-cultured in NIH-3T3 fibroblasts to establish IC50 values. Assays were performed in triplicate.
The single dose in vitro study included administration of the compounds in 80 μM inhibitor concentrations (N=3). Amphotericin B was used as a control.

T. brucei = T. brucei in vitro screen; assay type: cell-based; settings: Trypanosoma brucei; average; concentrations up to 10 μM, N=3
Experimental: Compounds 19-31 were screened against T. brucei. The single dose in vitro study included administration of the compounds in increasing concentrations up to 10 μM (N=3 for each compound concentration value). Media and T. bricei+0.5% SDS were used as control.

[12] = system: T. cruzi (Tulahuen strain) infective form (trypomastigote and amastigote life stages) co-cultured in NIH-3T3 fibroblasts; settings: literature / previously measured values; infective form in NIH-3T3 fibroblasts; cited from earlier work

T1 sequence (Q4E4E1 1-376): as the sequence (Q4E4E1 1-376) above

Nc1ncnc2c1ncn2[C@@H]1O[C@H](COP(=O)(O)OP(=O)(O)OP(=O)(O)O)[C@@H](O)[C@H]1O [ATP]
Km (TcGlcK [1]): 340 µM
Km (HsHxKIV [2]): 200 µM

O=C(NC1C(O)OC(CO)C(O)C1O)OCc1ccccc1 (centres unmarked) [CBZ-GlcN, carboxybenzyl glucosamine, reference compound]
NPI (%) HsHxKIV (HsHxKIV [3]): 15.0%
TcGlcK Inh20 (%) [4]: 92%
NPI (%) TcGlcK (TcGlcK [5]): 100%

O=C(N[C@H]1C(O)O[C@H](CO)[C@@H](O)[C@@H]1O)c1ccccc1 (some centres unmarked) [Compound 1, Benzoyl glucosamine]
HsHxKIV Inh20(%) [6]: 39%
NPI (%) HsHxKIV (HsHxKIV [3]): 9.30%
Ki (TcGlcK [7]): 32 µM
TcGlcK Inh20:HsHxKIV Inh20 ratio ([4]; higher values indicate more selective towards TcGlcK): 1.65
TcGlcK Inh20 (%) [4]: 65% and 64.7%
NPI (%) LbGlcK [8]: 27.2%
G6PDH Inh20 (%) [9]: 0.5 ± 1.0%
Ki stronger than compound 5 by magnitude (TcGlcK [10]; relative to compound 5): 4.3 fold
NPI (%) TcGlcK (TcGlcK [5]): 100%

O=C(N[C@H]1C(O)O[C@H](CO)[C@@H](O)[C@@H]1O)c1cc2ccccc2o1 (some centres unmarked) [Compound 5]
HsHxKIV Inh20(%) [6]: 25%
TcGlcK Inh20 (%) [4]: 31% and 31.2%
G6PDH Inh20 (%) [9]: 0.0 ± 0.0%
mode of TcGlcK inhibition (TcGlcK [10]): competitive inhibition
Ki (TcGlcK [10]; N = 3): 139 ± 35 µM
IC50 [11]: 27.2 µM

O=[N+]([O-])C1=Cc2cc(Br)cc(Br)c2O[C@H]1c1c(Cl)cccc1Cl [Compound 19]
NPI (%) HsHxKIV (HsHxKIV [3]): 82.1%
IC50 (T. brucei): 0.902 µM
NPI (%) TcGlcK (TcGlcK [5]): 62.3%

O=[N+]([O-])C1=Cc2cc(Br)ccc2O[C@H]1c1ccccc1Cl [Compound 20]
NPI (%) HsHxKIV (HsHxKIV [3]): 64.7%
IC50 (T. brucei): 0.862 µM
NPI (%) TcGlcK (TcGlcK [5]): 89.5%

O=[N+]([O-])C1=Cc2ccccc2O[C@H]1c1c(Cl)cccc1Cl [Compound 22]
NPI (%) HsHxKIV (HsHxKIV [3]): 66.0%
NPI (%) TcGlcK (TcGlcK [5]): 69.5%

O=C(Cn1ccnc1[N+](=O)[O-])NCc1ccccc1 [benznidazole]
IC50 [12]: 1.12 ± 0.01 µM
